Data on 3 compounds can be found in patent US4883666A, “Controlled drug delivery system for treatment of neural disorders” (Massachusetts Institute of Technology, priority 1987, dated 1989).

The subject of series [1] is behavioral deficits. The conditions noted are these: intracerebral injections; cited from earlier work.
Series [2] has as its system Parkinson's disease. The conditions noted are these: systemic application; cited from earlier work.
Series [3] relates to Parkinsonian patients. The conditions noted are these: three patients; continuous i.v. infusion replacing oral levodopa; cited from earlier work.
For series [4] the following is noted: both in vitro and in vivo; cited from earlier work.
The text on series [5]: Ethylene vinyl acetate slabs containing 0%, 30%, 40% and 50% dopamine by weight formed by solvent casting as previously described were punched out to form round discs, approximately 3.0 mm in diameter. These discs were then coated by an additional layer of ethylene vinyl acetate either (i) completely; (ii) completely except for one concave pinhole present on one surface (iii) completely except for two concave pinholes present, one on each surface; (iv) partially, with one surface coated and the other not coated; or (v) not coated at all.
The release of dopamine into 5 ml of a 150 mM NaCI, 0.2% EDTA solution was monitored by measuring the absorbance at 280 nm of the solution at various time points and by comparison to a linear standard curve comparing absorbance at 280 nm to concentration of dopamine in the same buffered solution. The results are portrayed as either the absolute mass released over the time course of 65 days or as the amount of dopamine released as a fraction of the total amount present in the pellet.
Samples of these solutions were injected into High Pressure Liquid Chromatography system designed to measure absolute quantities of dopamine and to distinguish dopamine from its oxidation products or other metabolites.

A short description of series [6]: Intracerebral dialysis: extracellular fluid dopamine levels in the striatum after implantation of dopamine containing EVA pellets. As for the experimental part:
Male Sprague-Dawley Ras (150-200 g) were anaesthetized with pentobarbitone (60 mg/kg) and placed in a David Kopf stereotaxic frame. The skull was exposed and a 4 mm diameter hole drilled centered at coordinates A +0.4 mm and R 2.6 mm using the Paxinos and Watson coordinates. The right cortex was aspirated using a mild vacuum down to the striatal surface (ventral - 3 mm). Pellets were implanted with the uncoated pore, when present, facing ventrally and imbedded in the body of the striatum. Both control, non-dopamine containing pellets, and dopamine containing (2 mg) pellets were implanted. In vivo release was measured on the third, twentieth and sixty-fifth days. Intracerebral Dialysis Method:
Rats were anaesthetized with pentobarbitone (60 mg/kg) and placed in the Kopf stereotaxic frame. The skull was exposed and a Carnegie Medicin dialysis probe (4 mm membrane length, 0.5 mm o.d., 5,000 m.w. cut off) implanted into the striatum at Paxinos and Watson coordinates A +2.1, R (or L) 1.9, V -7 mm. Probes were perfused with an artificial CSF medium, 1 mM Ca, pH 7.35, at a flow rate of 1.5 microliter/min using a CMA 100 pump. Fifteen minute samples were collected into 5 microliters of 0.5M perchloric acid. The probe was calibrated by measuring the recovery of standards of known concentration, 100 nM. Dialysates were immediately assayed by direct injection onto a highly sensitive reverse-phase, isocratic HPLC with an ESA 5100 coulochem detector. Chromatograms were completed within 11 minutes. After an initial period of "injury release", 60 to 90 minutes post probe implantation, stable concentrations of dopamine were measured for a minimum of three […] collections.
The first rat had probes inserted into the right striatum on the third and sixty-fifth days and in the left striatum on the sixty-fifth day post polymer implantation. The second rat had probes inserted into both the right and left striata on the twentieth day.

Where two headings read alike, the source gives them in different places.

With Nerve Growth Factor, in series [1], the behavioral deficits result is “reduces behavioral deficits”.

With `N[C@@H](Cc1ccc(O)c(O)c1)C(=O)O` [L-dopa], in series [2], the “behavioral symptoms of Parkinson's disease” value was “can be reduced”. Further, the clinical response entry in series [3] is “prolonged and stable clinical response”.

Take `NCCc1ccc(O)c(O)c1` [dopamine]: the “release from EVA over an extended period of time” value in series [4] is “linear, concentration and time-dependent release”. For the same compound, the “substance released that was dopamine (not oxidation products or other metabolites), HPLC” value in series [5] (High Pressure Liquid Chromatography of release solutions) was “greater than 99.9%”. Further, the release of dopamine entry in series [5] (coated fully except for one hole, 30% loading, up to 65 days in vitro) is on record as “linear release”; in series [5] (disc coated on one side, 30%, 40% or 50% dopamine) it was “the release is not linear”; in series [5] (disc containing 30%, 40% or 50% dopamine, fully coated, throughout the time period), “no release of dopamine”; in series [5] (disc not coated, 30%, 40% or 50% dopamine), “release occurred rapidly, in a non-linear manner”; in series [5] (fully coated except for two holes, 30% loading), “Virtual linear release”. In series [5] (coated fully except for one hole, 40% dopamine), the “initial release of dopamine (every thirty minutes over several hours)” value was “release is constant”. In addition, the “persistence of dopamine release into the extracellular fluid of the implanted striatum” value in series [6] (not evident on third day, seen by twentieth day) is “persists for at least two months”. Besides, the “increase in dopamine levels” value in series [6] (rat, in vivo) is listed as above 200 fold. In addition, the “dopamine concentration in the extracellular fluid (ECF)” value in series [6] (rat, in vivo, 28800 min) was determined as 30.5 nM. Besides, the “dopamine level in the extracellular fluid (ECF)” value in series [6] (rat, in vivo, 93600 min) was determined as 36 nM. Further, the “level of dopamine in the right striatum relative to normal” value in series [6] (third day) is recorded as “unchanged from normal”.
